From ChEMBL document CHEMBL1201862, “PubChem BioAssay data set” (2004)
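Exposure lasted 48 hours, with cells grown in 96-well plates and compounds tested at five concentrations. GI50 = concentration required for 50% inhibition of growth.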 Calls of active or inactive are those of the source. Rule as the data show it: active = GI50 up to about 1.1 µM and inactive = higher.

Assays:
Assay in all cases: inhibition of tumour cell growth, NCI panel, 48 h
ACHN = tested on: ACHN
BT-549 = tested on: BT-549
786-0 = tested on: 786-0
KM12 = tested on: KM12
CCRF-CEM = tested on: CCRF-CEM
CAKI-1 = tested on: CAKI-1
OVCAR-4 = tested on: OVCAR-4
HCT-15 = tested on: HCT-15
SF-268 = tested on: SF-268
A498 = tested on: A498
NCI-H226 = tested on: NCI-H226
SF-295 = tested on: SF-295
SW-620 = tested on: SW-620
OVCAR-8 = tested on: OVCAR-8
Malme-3M = tested on: Malme-3M
SK-MEL-2 = tested on: SK-MEL-2
UO-31 = tested on: UO-31
NCI-H460 = tested on: NCI-H460
SK-MEL-28 = tested on: SK-MEL-28
HT-29 = tested on: HT-29
K562 = tested on: K562
IGROV-1 = tested on: IGROV-1
Hs-578T = tested on: Hs-578T
MDA-N = tested on: MDA-N
RXF 393 = tested on: RXF 393
TK-10 = tested on: TK-10
SNB-75 = tested on: SNB-75
MOLT-4 = tested on: MOLT-4
COLO 205 = tested on: COLO 205
HOP-62 = tested on: HOP-62
NCI-H23 = tested on: NCI-H23
NCI/ADR-RES = tested on: NCI/ADR-RES
HCT-116 = tested on: HCT-116
RPMI-8226 = tested on: RPMI-8226
HCC 2998 = tested on: HCC 2998
SK-MEL-5 = tested on: SK-MEL-5
DU-145 = tested on: DU-145
A549 = tested on: A549
SNB-19 = tested on: SNB-19
UACC-62 = tested on: UACC-62
MCF7 = tested on: MCF7
U-251 = tested on: U-251
M14 = tested on: M14
MDA-MB-435 = tested on: MDA-MB-435
SK-OV-3 = tested on: SK-OV-3
NCI-H522 = tested on: NCI-H522
MDA-MB-231 = tested on: MDA-MB-231
UACC-257 = tested on: UACC-257
OVCAR-5 = tested on: OVCAR-5
SN12C = tested on: SN12C
EKVX = tested on: EKVX
PC-3 = tested on: PC-3
SR = tested on: SR
T47D = tested on: T47D
OVCAR-3 = tested on: OVCAR-3
LOX IMVI = tested on: LOX IMVI
HL-60 = tested on: HL-60
SF-539 = tested on: SF-539

CCn1c(=O)ccc2ccc(N(CCO)CCO)nc21
GI50 (ACHN): > 100 µM (inactive)
GI50 (BT-549): > 100 µM (inactive)
GI50 (786-0): > 100 µM (inactive)
GI50 (KM12): > 100 µM (inactive)
GI50 (CCRF-CEM): > 100 µM (inactive)
GI50 (CAKI-1): > 100 µM (inactive)
GI50 (OVCAR-4): > 100 µM (inactive)
GI50 (HCT-15): > 100 µM
GI50 (SF-268): > 100 µM (inactive)
GI50 (A498): > 100 µM (inactive)
GI50 (NCI-H226): > 100 µM (inactive)
GI50 (SF-295): > 100 µM (inactive)
GI50 (SW-620): > 100 µM (inactive)
GI50 (OVCAR-8): > 100 µM (inactive)
GI50 (Malme-3M): > 100 µM (inactive)
GI50 (SK-MEL-2): > 100 µM (inactive)
GI50 (UO-31): > 100 µM (inactive)
GI50 (NCI-H460): > 100 µM (inactive)
GI50 (SK-MEL-28): > 100 µM (inactive)
GI50 (HT-29): > 100 µM (inactive)
GI50 (K562): > 100 µM (inactive)
GI50 (IGROV-1): > 100 µM (inactive)
GI50 (Hs-578T): > 100 µM (inactive)
GI50 (MDA-N): > 100 µM (inactive)
GI50 (RXF 393): > 100 µM (inactive)
GI50 (TK-10): > 100 µM (inactive)
GI50 (SNB-75): > 100 µM (inactive)
GI50 (MOLT-4): 97.7 µM (inactive)
GI50 (COLO 205): > 100 µM (inactive)
GI50 (HOP-62): > 100 µM (inactive)
GI50 (NCI-H23): > 100 µM (inactive)
GI50 (NCI/ADR-RES): > 100 µM (inactive)
GI50 (HCT-116): > 100 µM (inactive)
GI50 (RPMI-8226): > 100 µM (inactive)
GI50 (HCC 2998): > 100 µM (inactive)
GI50 (SK-MEL-5): > 100 µM (inactive)
GI50 (DU-145): > 100 µM (inactive)
GI50 (A549): > 100 µM (inactive)
GI50 (SNB-19): > 100 µM (inactive)
GI50 (UACC-62): > 100 µM (inactive)
GI50 (MCF7): > 100 µM (inactive)
GI50 (U-251): > 100 µM (inactive)
GI50 (M14): > 100 µM (inactive)
GI50 (MDA-MB-435): > 100 µM (inactive)
GI50 (SK-OV-3): > 100 µM (inactive)
GI50 (NCI-H522): > 100 µM (inactive)
GI50 (MDA-MB-231): > 100 µM (inactive)
GI50 (UACC-257): > 100 µM (inactive)
GI50 (OVCAR-5): > 100 µM (inactive)
GI50 (SN12C): > 100 µM (inactive)
GI50 (EKVX): > 100 µM (inactive)
GI50 (PC-3): > 100 µM (inactive)
GI50 (SR): > 100 µM (inactive)
GI50 (T47D): > 100 µM (inactive)
GI50 (OVCAR-3): > 100 µM (inactive)

[N-]=[N+]=NC[C@H]1OCO[C@H](CN=[N+]=[N-])[C@@H](OCCOCCCl)[C@@H]1OCCOCCCl
GI50 (BT-549): > 100 µM (inactive)
GI50 (786-0): > 100 µM (inactive)
GI50 (KM12): > 100 µM (inactive)
GI50 (CCRF-CEM): > 100 µM (inactive)
GI50 (CAKI-1): > 100 µM (inactive)
GI50 (OVCAR-4): > 100 µM (inactive)
GI50 (HCT-15): > 100 µM
GI50 (SF-268): > 100 µM (inactive)
GI50 (NCI-H226): > 100 µM (inactive)
GI50 (SF-295): > 100 µM (inactive)
GI50 (SW-620): > 100 µM (inactive)
GI50 (OVCAR-8): > 100 µM (inactive)
GI50 (Malme-3M): > 100 µM (inactive)
GI50 (SK-MEL-2): > 100 µM (inactive)
GI50 (UO-31): 30.1 µM (inactive)
GI50 (NCI-H460): > 100 µM (inactive)
GI50 (SK-MEL-28): > 100 µM (inactive)
GI50 (HT-29): > 100 µM (inactive)
GI50 (K562): > 100 µM (inactive)
GI50 (LOX IMVI): > 100 µM (inactive)
GI50 (IGROV-1): > 100 µM (inactive)
GI50 (Hs-578T): 80 µM (inactive)
GI50 (MDA-N): > 100 µM (inactive)
GI50 (RXF 393): 5.66 µM (inactive)
GI50 (TK-10): > 100 µM (inactive)
GI50 (SNB-75): > 100 µM (inactive)
GI50 (MOLT-4): > 100 µM (inactive)
GI50 (COLO 205): > 100 µM (inactive)
GI50 (HOP-62): > 100 µM (inactive)
GI50 (NCI-H23): > 100 µM (inactive)
GI50 (NCI/ADR-RES): > 100 µM (inactive)
GI50 (HCT-116): > 100 µM (inactive)
GI50 (RPMI-8226): > 100 µM (inactive)
GI50 (HCC 2998): > 100 µM (inactive)
GI50 (SK-MEL-5): 57 µM (inactive)
GI50 (DU-145): > 100 µM (inactive)
GI50 (A549): > 100 µM (inactive)
GI50 (SNB-19): > 100 µM (inactive)
GI50 (HL-60): > 100 µM (inactive)
GI50 (UACC-62): 80 µM (inactive)
GI50 (MCF7): > 100 µM (inactive)
GI50 (U-251): > 100 µM (inactive)
GI50 (M14): > 100 µM (inactive)
GI50 (MDA-MB-435): > 100 µM (inactive)
GI50 (SK-OV-3): > 100 µM (inactive)
GI50 (NCI-H522): > 100 µM (inactive)
GI50 (MDA-MB-231): > 100 µM (inactive)
GI50 (UACC-257): > 100 µM (inactive)
GI50 (SF-539): > 100 µM (inactive)
GI50 (SN12C): > 100 µM (inactive)
GI50 (EKVX): > 100 µM (inactive)
GI50 (PC-3): > 100 µM (inactive)
GI50 (SR): > 100 µM (inactive)
GI50 (T47D): > 100 µM (inactive)
GI50 (OVCAR-3): > 100 µM (inactive)
